Laboratory results taken from paper PMC9169222, “Impedance-Based Phenotypic Readout of Transporter Function: A Case for Glutamate Transporters” (Frontiers in Pharmacology, 2022).
Counter-ions that a name gives are not always drawn. Like-named read-outs stand apart in the source and are kept apart here. Marks after values point to notes of the source that are not given here.

Assays:
[1] = tested on: 1321N1 cells; assay: Impedance-based phenotypic assay on 1321N1 cells; format: cell-based, human; conditions: 1 mM
Protocol: Label-free whole-cell assays, based on cell-induced changes in impedance, were performed using the xCELLigence real-time cell analyzer (RTCA) system (ACEA Biosciences, San Diego, CA, United States) as described previously ([Vlachodimou et al., 2019]; [Sijben et al., 2021a], [2021b]). In short, cells are cultured in medium on gold-plated electrodes in microwell E-plates. Per well impedance is continuously measured at 10 kHz and is converted to the unitless parameter Cell Index (CI) by the following formula: CI=(Zi−Z0)Ω/15Ω where Zi is the impedance at any given time point and Z0 is the baseline impedance measured at the start of each experiment ([Kho et al., 2015]).
Assays were performed at 37°C and 5% CO2 in 96-well PET E-plates in a total volume of 100 µl per well. Prior to cell seeding, the baseline impedance (Z0) was measured in the recording station in 40 µl (two compound additions) or 45 µl (one compound addition) medium in the presence (+) or absence (−) of 1 μg/ml dox. […]
Experimental data was recorded using RTCA Software v2.0 or v2.1.1 (ACEA Biosciences). […] The potency values of substrates and inhibitory potencies of EAAT inhibitors were determined by fitting the net AUC data to a sigmoidal concentration-effect curve with a variable slope.

[2] = molecular target: EAAT1 (endogenous, MDA-MB-468 cells) (Homo sapiens, UniProt P43003); assay: Impedance-based phenotypic assay on MDA-MB-468 cells; format: cell-based
Chain of EAAT1 (endogenous, MDA-MB-468 cells) (P43003 whole entry): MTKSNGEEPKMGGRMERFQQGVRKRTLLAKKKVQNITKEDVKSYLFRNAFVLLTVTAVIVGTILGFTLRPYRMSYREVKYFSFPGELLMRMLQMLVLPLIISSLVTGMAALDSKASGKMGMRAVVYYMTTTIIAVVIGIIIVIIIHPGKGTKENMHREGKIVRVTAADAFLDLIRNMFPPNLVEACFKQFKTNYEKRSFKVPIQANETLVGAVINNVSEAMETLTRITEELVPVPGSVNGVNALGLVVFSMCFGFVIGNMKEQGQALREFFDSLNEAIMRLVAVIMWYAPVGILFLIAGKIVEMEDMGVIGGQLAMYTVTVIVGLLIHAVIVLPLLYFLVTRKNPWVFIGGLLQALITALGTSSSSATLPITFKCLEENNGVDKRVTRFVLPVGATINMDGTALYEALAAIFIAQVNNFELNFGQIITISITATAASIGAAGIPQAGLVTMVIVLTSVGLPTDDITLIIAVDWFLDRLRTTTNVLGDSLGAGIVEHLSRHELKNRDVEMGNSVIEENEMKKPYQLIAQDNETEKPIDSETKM
Protocol: MDA-MB-468 cells were cultured as adherent cells in DMEM containing 10% (v/v) FCS, 2 mM Glutamax, 100 IU/ml penicillin and 100 μg/ml streptomycin (culture medium) at 37°C and 5% CO2. Cells were split twice weekly at 1:3–1:4 ratios in 10 cm culture dishes.
(§1) In short, cells are cultured in medium on gold-plated electrodes in microwell E-plates.
(§2) Assays were performed at 37°C and 5% CO2 in 96-well PET E-plates in a total volume of 100 µl per well. Prior to cell seeding, the baseline impedance (Z0) was measured in the recording station in 40 µl (two compound additions) or 45 µl (one compound addition) medium in the presence (+) or absence (−) of 1 μg/ml dox. All compounds were diluted in phosphate-buffered saline (PBS) and added in 5 µl per addition using a VIAFLO 96 handheld electronic 96 channel pipette (INTEGRA Biosciences, Tokyo, Japan). When DMSO was used as a solvent for a compound, the final amount of DMSO was kept at 0.1% per well and was included in the vehicle (PBS/DMSO). All conditions were tested at two technical replicates per plate.
(§3) Experimental data was recorded using RTCA Software v2.0 or v2.1.1 (ACEA Biosciences). In the RTCA Software CI values were normalized to the time point prior to substrate/agonist stimulation resulting in normalized Cell Index (nCI) values. The nCI data were exported and subsequent analyses and data visualizations were done using GraphPad Prism v9 (GraphPad Software, San Diego, CA, United States). In all experiments, nCI values of vehicle-only conditions were subtracted from all other conditions to correct for vehicle-induced, substrate-independent effects. […] The potency values of substrates and inhibitory potencies of EAAT inhibitors were determined by fitting the net AUC data to a sigmoidal concentration-effect curve with a variable slope.

[3] = molecular target: T1, EAAT1 (JumpIn-EAAT1-mock cells) (Homo sapiens, UniProt P43003); assay: Impedance-based TRACT assay (xCELLigence) on mock-transfected JumpIn-EAAT1 cells; format: cell-based; conditions: no inhibitor
T1 construct: expressed in transfected cells; host or cells: Jump In T-REx HEK 293
T1 sequence (P43003 whole entry, the tested form may be a part): as the sequence (P43003 whole entry) above
Protocol: as §1, §2
Transiently transfected JumpIn-EAAT1 cells were detached using only PBS/EDTA. The E-plate was left to rest at room temperature for 30 min prior to replacement in the recording station at 37°C and 5% CO2. Cell growth was recorded overnight for 22 h. If a pretreatment was required for the experiment, the cells were pretreated after 22 h with either a concentration of inhibitor or vehicle (PBS/DMSO) and cells were monitored for 60 min. For GPCR antagonist experiments, a maximum concentration of LY341495 (1 µM) was used. […] After the pretreatment, cells were stimulated with substrate or vehicle (PBS). […] After stimulation the impedance was measured for at least 2 h. […] Properly washed plates were re-used up to two times.
as §3, with “States).” for “States). In all experiments, nCI values of vehicle-only conditions were subtracted from all other conditions to correct for vehicle-induced, substrate-independent effects.”

## N[C@@H](CCC(=O)O)C(=O)O [L-glutamate, L-glutamic acid monosodium salt monohydrate]
[1]
  Cellular response within 180 min: did not show a substantial cellular response
[2]
  Substrate pEC50 ± SEM: 4.0 ± 0.2 ^b
[3]; +dox, net AUC 0–15 min, read-out: Substrate pEC50 ± SEM (AUC = 0–15 min) (converted)
  EC50: > 1000 µM
[3]; +dox, net AUC 0–120 min, read-out: Substrate pEC50 ± SEM (AUC = 0–120 min) (converted)
  EC50: 316 µM
[3]; Substrate pEC50 ± SEM (AUC = 0–120 min), −dox, net AUC 0–120 min
  EC50: 100 µM
